# Results as given in PMC9668928, “Zandelisib (ME-401) in Japanese patients with relapsed or refractory indolent non-Hodgkin’s lymphoma: an open-label, multicenter, dose-escalation phase 1 study” (International Journal of Hematology, 2022).
# Test system: Japanese patients with R/R iNHL
# Assay: Phase 1 dose-escalation study: safety and tolerability (TEAEs, DLTs)
# Assay type: in vivo
# Source text: Japanese patients aged ≥ 20 years with R/R iNHL histologically confirmed as FL, nodal MZL, extra-nodal MZL of mucosa-associated lymphoid tissue, small lymphocytic lymphoma, lymphoplasmacytic lymphoma, Waldenström’s macroglobulinemia, or equivalent, according to World Health Organization classification, were eligible for this study. Other key eligibility criteria included being PI3K inhibitor therapy-naïve and an Eastern Cooperative Oncology Group performance status of 0 or 1. Further details of inclusion and exclusion criteria are provided in Supplementary Table 1.
# This was a multicenter, open-label, dose-escalation, phase 1 study in Japan. All patients received oral zandelisib once daily at the same time each day, at least 1 h before or 2 h after a meal (CS: continuous schedule). Each treatment cycle was 28 days. Definitions of the DLTs described in this study can be found in Supplementary Table 2. The observation period for DLTs was from day 1 of Cycle 1 to day 1 of Cycle 2. Zandelisib was administered until disease progression or unacceptable toxicity. In the event of an AE, patients could be switched to IDT. In the case of disease progression while receiving IDT, patients could be switched back to CS per the investigator’s discretion.
# A starting dose of 45 mg was set for investigating patient safety. This study adopted a standard 3 + 3 design. […] If DLTs occurred in 2 or more patients, the study was planned to be suspended pending a safety evaluation. If a DLT occurred in 1 patient, 3 further patients were added to cohort 1. If DLTs occurred in 0/3 or 1/6 patients in cohort 1, dosing in cohort 2 commenced (n = 6; 60 mg/day). If the incidence of DLTs in cohort 2 was ≤ 1/6, the maximum tolerated dose was not determined, and the dose in cohort 2 was to be selected as the recommended Japanese phase 2 dose.
# The primary endpoint was the safety [number of patients with treatment-emergent adverse events (TEAEs), based on Common Terminology Criteria for Adverse Events version 5.0] and tolerability (including laboratory values, vital signs, and electrocardiogram performance) of zandelisib in Japanese patients. Hepatobiliary disorder, aspartate/alanine (AST/ALT) increased, diarrhea/colitis, organizing pneumonia, stomatitis, or rash were defined as irAEs in this manuscript. Secondary endpoints included PK (plasma concentrations and PK parameters) and the efficacy of zandelisib. […] The PK parameters for Cycle 1 day 1 and Cycle 2 day 1 were calculated for each patient by non-compartmental analysis. PK parameters included maximum plasma drug concentration (Cmax), area under the plasma concentration–time curve (AUC) from time zero to the last measurable point (AUC0–t), the AUC from time zero to infinity (AUC0-inf), and terminal half-life (t1/2).
structure (smiles),measurement,setting,value
CN1CCC(c2ccccc2CC(C)(C)Nc2nc(N3CCOCC3)nc(-n3c(C(F)F)nc4ccccc43)n2)CC1 [zandelisib],"TEAE Cytomegalovirus viremia, Grade ≥ 3","Total, N = 9",0 n (%)
same,"TEAE Decreased appetite, All grades","Total, N = 9",1 (11.1) n (%)
same,"TEAE Decreased appetite, Grade ≥ 3","Total, N = 9",1 (11.1) n (%)
same,"TEAE Diarrhea, All grades","Total, N = 9",4 (44.4) n (%)
same,"TEAE Diarrhea, Grade ≥ 3","Total, N = 9",3 (33.3) n (%)
same,"TEAE Drug hypersensitivity, All grades","Total, N = 9",1 (11.1) n (%)
same,"TEAE Drug hypersensitivity, Grade ≥ 3","Total, N = 9",0 n (%)
same,"TEAE Drug-induced liver injury, All grades","Total, N = 9",1 (11.1) n (%)
same,"TEAE Drug-induced liver injury, Grade ≥ 3","Total, N = 9",1 (11.1) n (%)
same,"TEAE Dry eye, All grades","Total, N = 9",1 (11.1) n (%)
same,"TEAE Dry eye, Grade ≥ 3","Total, N = 9",0 n (%)
same,"TEAE Dry skin, All grades","Total, N = 9",2 (22.2) n (%)
same,"TEAE Dry skin, Grade ≥ 3","Total, N = 9",0 n (%)
same,"TEAE Dysgeusia, All grades","Total, N = 9",1 (11.1) n (%)
same,"TEAE Dysgeusia, Grade ≥ 3","Total, N = 9",0 n (%)
same,"TEAE Dyspnea, All grades","Total, N = 9",1 (11.1) n (%)
same,"TEAE Dyspnea, Grade ≥ 3","Total, N = 9",1 (11.1) n (%)
same,"TEAE Ear and labyrinth disorders (SOC), All grades","Total, N = 9",1 (11.1) n (%)
same,"TEAE Ear and labyrinth disorders (SOC), Grade ≥ 3","Total, N = 9",0 n (%)
same,"TEAE Eczema, All grades","Total, N = 9",1 (11.1) n (%)
same,"TEAE Eczema, Grade ≥ 3","Total, N = 9",0 n (%)
same,"TEAE Eosinophil count increased, All grades","Total, N = 9",1 (11.1) n (%)
same,"TEAE Eosinophil count increased, Grade ≥ 3","Total, N = 9",0 n (%)
same,"TEAE Erythema multiforme, All grades","Total, N = 9",1 (11.1) n (%)
same,"TEAE Erythema multiforme, Grade ≥ 3","Total, N = 9",0 n (%)
same,"TEAE Eye disorders (SOC), All grades","Total, N = 9",2 (22.2) n (%)
same,"TEAE Eye disorders (SOC), Grade ≥ 3","Total, N = 9",0 n (%)
same,"TEAE Flank pain, All grades","Total, N = 9",1 (11.1) n (%)
same,"TEAE Flank pain, Grade ≥ 3","Total, N = 9",0 n (%)
same,"TEAE GGT increased, All grades","Total, N = 9",1 (11.1) n (%)
same,"TEAE GGT increased, Grade ≥ 3","Total, N = 9",1 (11.1) n (%)
same,"TEAE Gastrointestinal disorders (SOC), All grades","Total, N = 9",6 (66.7) n (%)
same,"TEAE Gastrointestinal disorders (SOC), Grade ≥ 3","Total, N = 9",4 (44.4) n (%)
same,"TEAE General disorders and administration site conditions (SOC), All grades","Total, N = 9",1 (11.1) n (%)
same,"TEAE General disorders and administration site conditions (SOC), Grade ≥ 3","Total, N = 9",0 n (%)
same,"TEAE Hepatic function abnormal, All grades","Total, N = 9",2 (22.2) n (%)
same,"TEAE Hepatic function abnormal, Grade ≥ 3","Total, N = 9",1 (11.1) n (%)
same,"TEAE Hepatobiliary disorders (SOC), All grades","Total, N = 9",3 (33.3) n (%)
same,"TEAE Hepatobiliary disorders (SOC), Grade ≥ 3","Total, N = 9",2 (22.2) n (%)
same,"TEAE Herpes simplex, All grades","Total, N = 9",1 (11.1) n (%)
same,"TEAE Herpes simplex, Grade ≥ 3","Total, N = 9",0 n (%)
same,"TEAE Herpes zoster, All grades","Total, N = 9",1 (11.1) n (%)
same,"TEAE Herpes zoster, Grade ≥ 3","Total, N = 9",0 n (%)
same,"TEAE Hypoesthesia, All grades","Total, N = 9",1 (11.1) n (%)
same,"TEAE Hypoesthesia, Grade ≥ 3","Total, N = 9",0 n (%)
same,"TEAE Hypogammaglobulinemia, All grades","Total, N = 9",2 (22.2) n (%)
same,"TEAE Hypogammaglobulinemia, Grade ≥ 3","Total, N = 9",0 n (%)
same,"TEAE Immune system disorders (SOC), All grades","Total, N = 9",3 (33.3) n (%)
same,"TEAE Immune system disorders (SOC), Grade ≥ 3","Total, N = 9",0 n (%)
same,"TEAE Infections and infestations (SOC), All grades","Total, N = 9",6 (66.7) n (%)
same,"TEAE Infections and infestations (SOC), Grade ≥ 3","Total, N = 9",0 n (%)
same,"TEAE Infusion site extravasation, All grades","Total, N = 9",1 (11.1) n (%)
same,"TEAE Infusion site extravasation, Grade ≥ 3","Total, N = 9",0 n (%)
same,"TEAE Insomnia, All grades","Total, N = 9",1 (11.1) n (%)
same,"TEAE Insomnia, Grade ≥ 3","Total, N = 9",0 n (%)
same,"TEAE Investigations (SOC), All grades","Total, N = 9",9 (100.0) n (%)
same,"TEAE Investigations (SOC), Grade ≥ 3","Total, N = 9",6 (66.7) n (%)
same,"TEAE Joint effusion, All grades","Total, N = 9",1 (11.1) n (%)
same,"TEAE Joint effusion, Grade ≥ 3","Total, N = 9",0 n (%)
same,"TEAE Lymphocyte count decreased, All grades","Total, N = 9",3 (33.3) n (%)
same,"TEAE Lymphocyte count decreased, Grade ≥ 3","Total, N = 9",1 (11.1) n (%)
same,"TEAE Metabolism and nutrition disorders (SOC), All grades","Total, N = 9",1 (11.1) n (%)
same,"TEAE Metabolism and nutrition disorders (SOC), Grade ≥ 3","Total, N = 9",1 (11.1) n (%)
same,"TEAE Muscle spasms, All grades","Total, N = 9",1 (11.1) n (%)
same,"TEAE Muscle spasms, Grade ≥ 3","Total, N = 9",0 n (%)
same,"TEAE Musculoskeletal and connective tissue disorders (SOC), All grades","Total, N = 9",4 (44.4) n (%)
same,"TEAE Musculoskeletal and connective tissue disorders (SOC), Grade ≥ 3","Total, N = 9",0 n (%)
same,"TEAE Nasopharyngitis, All grades","Total, N = 9",5 (55.6) n (%)
same,"TEAE Nasopharyngitis, Grade ≥ 3","Total, N = 9",0 n (%)
same,"TEAE Nausea, All grades","Total, N = 9",3 (33.3) n (%)
same,"TEAE Nausea, Grade ≥ 3","Total, N = 9",0 n (%)
same,"TEAE Nervous system disorders (SOC), All grades","Total, N = 9",1 (11.1) n (%)
same,"TEAE Nervous system disorders (SOC), Grade ≥ 3","Total, N = 9",0 n (%)
same,"TEAE Neutrophil count decreased, All grades","Total, N = 9",8 (88.9) n (%)
same,"TEAE Neutrophil count decreased, Grade ≥ 3","Total, N = 9",5 (55.6) n (%)
same,"TEAE Oral herpes, All grades","Total, N = 9",1 (11.1) n (%)
same,"TEAE Oral herpes, Grade ≥ 3","Total, N = 9",0 n (%)
same,"TEAE Organizing pneumonia, All grades","Total, N = 9",1 (11.1) n (%)
same,"TEAE Organizing pneumonia, Grade ≥ 3","Total, N = 9",1 (11.1) n (%)
same,"TEAE Oropharyngeal pain, All grades","Total, N = 9",2 (22.2) n (%)
same,"TEAE Oropharyngeal pain, Grade ≥ 3","Total, N = 9",0 n (%)
same,"TEAE Pancreatitis, All grades","Total, N = 9",1 (11.1) n (%)
same,"TEAE Pancreatitis, Grade ≥ 3","Total, N = 9",1 (11.1) n (%)
same,"TEAE Pharyngeal paresthesia, All grades","Total, N = 9",1 (11.1) n (%)
same,"TEAE Pharyngeal paresthesia, Grade ≥ 3","Total, N = 9",0 n (%)
same,"TEAE Pruritus, All grades","Total, N = 9",1 (11.1) n (%)
same,"TEAE Pruritus, Grade ≥ 3","Total, N = 9",0 n (%)
same,"TEAE Psychiatric disorders (SOC), All grades","Total, N = 9",1 (11.1) n (%)
same,"TEAE Psychiatric disorders (SOC), Grade ≥ 3","Total, N = 9",0 n (%)
same,"TEAE Rash maculopapular, All grades","Total, N = 9",5 (55.6) n (%)
same,"TEAE Rash maculopapular, Grade ≥ 3","Total, N = 9",1 (11.1) n (%)
same,"TEAE Rash, All grades","Total, N = 9",4 (44.4) n (%)
same,"TEAE Rash, Grade ≥ 3","Total, N = 9",0 n (%)
same,"TEAE Renal and urinary disorders (SOC), All grades","Total, N = 9",1 (11.1) n (%)
same,"TEAE Renal and urinary disorders (SOC), Grade ≥ 3","Total, N = 9",0 n (%)
same,"TEAE Renal impairment, All grades","Total, N = 9",1 (11.1) n (%)
same,"TEAE Renal impairment, Grade ≥ 3","Total, N = 9",0 n (%)
same,"TEAE Respiratory, thoracic, and mediastinal disorders (SOC), All grades","Total, N = 9",4 (44.4) n (%)
same,"TEAE Respiratory, thoracic, and mediastinal disorders (SOC), Grade ≥ 3","Total, N = 9",1 (11.1) n (%)
same,"TEAE Skin and subcutaneous tissue disorders (SOC), All grades","Total, N = 9",9 (100.0) n (%)
same,"TEAE Skin and subcutaneous tissue disorders (SOC), Grade ≥ 3","Total, N = 9",1 (11.1) n (%)
same,"TEAE Stomatitis, All grades","Total, N = 9",2 (22.2) n (%)
same,"TEAE Stomatitis, Grade ≥ 3","Total, N = 9",1 (11.1) n (%)
same,"TEAE Subcutaneous abscess, All grades","Total, N = 9",1 (11.1) n (%)
same,"TEAE Subcutaneous abscess, Grade ≥ 3","Total, N = 9",0 n (%)
same,"TEAE Tinnitus, All grades","Total, N = 9",1 (11.1) n (%)
same,"TEAE Tinnitus, Grade ≥ 3","Total, N = 9",0 n (%)
same,"TEAE Urticaria, All grades","Total, N = 9",1 (11.1) n (%)
same,"TEAE Urticaria, Grade ≥ 3","Total, N = 9",0 n (%)
same,"TEAE Vomiting, All grades","Total, N = 9",2 (22.2) n (%)
same,"TEAE Vomiting, Grade ≥ 3","Total, N = 9",0 n (%)
same,"TEAE WBC count decreased, All grades","Total, N = 9",4 (44.4) n (%)
same,"TEAE WBC count decreased, Grade ≥ 3","Total, N = 9",0 n (%)
same,discontinued treatment due to TEAEs,"cohort 1, 45 mg/day",2 patients
same,discontinued treatment due to TEAEs,"cohort 2, 60 mg/day",2 patients
same,discontinuation due to irAEs,during IDT,no discontinuation due to irAEs occurred during IDT
same,recurrence of Grade ≥ 3 irAEs and any grade irAEs leading to drug interruption,during IDT,4/8
